Patent US4791139A, “Diphenyl ether derivatives and their use as insecticides” (Imperial Chemical Industries PLC, priority 1986, dated 1988)

Legend:
Format in all cases: in vivo
Myzus persicae (aphids) = assay: Contact test, aphids (MP), Chinese Cabbage leaf; settings: 72 h, 3 days, read-out: MP grading of mortality
Procedure, shortened: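 Aphids on a host plant and/or the plant itself were treated with 100–500 ppm of product, applied from acetone diluted in water containing 0.1% SYNPERONIC NX wetting agent. Mortality was scored usually one to seven days after treatment.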

[1] = system: Musca domestica (houseflies - adults); assay: Contact test, houseflies - adults (MD), Cotton wool/sugar; settings: 24 h, 1 day, read-out: MD grading of mortality
Procedure, shortened: (§1)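 Compound dissolved in acetone and diluted in water with 0.1% SYNPERONIC NX wetting agent to 100–500 ppm. Pests held on host plant or food medium, with pests and/or medium treated. Mortality scored 1–7 days after treatment.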

[2] = system: Spodoptera exigua (lesser army worm - larvae); assay: Residual test, lesser army worm - larvae (SP), Cotton leaf; settings: 72 h, 3 days, read-out: SP grading of mortality
Procedure, shortened: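 Compound dissolved in acetone and diluted in water with 0.1% Synperonic NX wetting agent to 100–500 ppm. Pests on host plant or food, with pests and/or medium treated. Mortality assessed 1–7 days after treatment and graded A (80–100%), B (50–79%) or C (<50%).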

[3] = system: Musca domestica (houseflies - adults); assay: Knockdown test, houseflies - adults (MD/KD), Cotton wool/sugar; settings: 4 hours, read-out: MD/KD grading of knockdown
Procedure, shortened: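 Product was dissolved in acetone and diluted with water containing 0.1% wetting agent to 100–500 ppm. The flies and/or their food medium were treated with the preparation. Mortality was scored 1–7 days after treatment, with an additional knockdown assessment for houseflies.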

[4] = system: Tetranychus urticae (spider mites - adult); assay: Contact test, spider mites - adult (TUa), French bean leaf; settings: 72 h, 3 days, read-out: TUA grading of mortality
Procedure, shortened: as §1

[5] = system: Nilaparvata lugens (brown plant hopper - nymphs); assay: Contact test, brown plant hopper - nymphs (NL), Rice plant; settings: 72 h, 3 days, read-out: NL grading of mortality
Procedure, shortened: as §1

[6] = system: Meloidogyne incognita (Tomato root knot eelworm - larvae); assay: Residual test, Tomato root knot eelworm - larvae (MI), Semi in-vitro; settings: 168 h, application rate is half that recorded, 7 days, read-out: MI grading of mortality; for mortality at 250 µg/mL: rate column 500 ppm
Protocol: The activity of the Product was determined using a variety of insect pests. The Product was used in the form of liquid preparations containing from 100 to 500 parts per million (ppm) by weight of the Product. The preparations were made by dissolving the Product in acetone and diluting the solutions with water containing 0.1% by weight of a wetting agent sold under the trade name "SYNPERONIC" NX until the liquid preparations contained the required concentration of the Product.
The test procedure adopted with regard to each pest was basically the same and comprised supporting a number of the pests on a medium which was usually a host plant or a foodstuff on which the pests feed, and treating either or both the pests and the medium with the preparations. The mortality of the pests was then assessed at periods usually varying from one to seven days after the treatment.
The results of the tests are given in Table III for each of the Products, at the rate in parts per million given in the second column as a grading of mortality designated as A, B or C wherein A indicates 80-100% mortality or knockdown (70-100% for Meloidogyne incognita), B indicates 50-79% mortality knockdown or knockdown (50-69% for Meloidogyne incognita) and C indicates less than 50% mortality or knockdown.

[7] = system: Heliothis virescens (tobacco budworm - larvae); assay: Residual test, tobacco budworm - larvae (HV), Cotton leaf; settings: 72 h, read-out: HV grading of mortality
Procedure, shortened: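 Products applied as acetone solutions diluted in water with 0.1% wetting agent, at 100–500 ppm; pests on host plant or food, with pests and/or medium treated. Mortality or knockdown scored 1–7 days after treatment and graded A (80–100%), B (50–79%) or C (<50%).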

[8] = system: Diabrotica balteata (rootworm larvae); assay: Residual test, rootworm larvae (DB), Filter paper/maize seed; settings: 72 h, 3 days, read-out: DB grading of mortality
Procedure, shortened: as §1

[9] = system: Tetranychus urticae (spider mites - ova); assay: Contact test, spider mites - ova (TUe), French bean leaf; settings: 144 h, 6 days, read-out: TUE grading of mortality
Procedure, shortened: as §1

[10] = system: Blattella germanica (cockroach nymphs); assay: Residual test, cockroach nymphs (BG), Plastic pot; settings: 72 h, 3 days, read-out: BG grading of mortality
Procedure, shortened: as §1

Compound | mortality at 500 ppm (Myzus persicae (aphids)) | mortality at 500 ppm [1] | mortality at 500 ppm [2] | pest or weed control at 500 ppm [3] | mortality at 500 ppm [4] | mortality at 500 ppm [5] | mortality at 250 µg/mL [6] | mortality at 500 ppm [7] | mortality at 500 ppm [8] | mortality at 500 ppm [9] | mortality at 500 ppm [10] | other results
CCOc1c(F)cc(C(CCCc2cccc(Oc3ccccc3)c2)C(F)(F)F)cc1F (racemic) [Compound 57, 1,1,1-Trifluoro-2-(3,5-difluoro-4-ethoxyphenyl)-5-(3-phenoxyphenyl)pentane] | 80 to 100% | 80 to 100% | 80 to 100% | 80 to 100% | 80 to 100% | 80 to 100% | < 50% | 80 to 100% | 80 to 100% | 80 to 100% | 80 to 100% | 
CCOc1c(F)cc(C(=CC=Cc2ccc(F)c(Oc3ccccc3)c2)C(F)(F)F)cc1F [Compound 67, 1,1,1-Trifluoro-2-(3,5-difluoro-4-ethoxyphenyl)-5-(4-fluoro-3-phenoxyphenyl)penta-2,4-diene] | 80 to 100% | < 50% | 80 to 100% | < 50% | < 50% | 80 to 100% | < 50% | 80 to 100% | 80 to 100% | < 50% | < 50% | 
Fc1ccc(C(=CCCc2cccc(Oc3ccccc3)c2)C(F)(F)F)cc1 [Compound 47, 1,1,1-Trifluoro-2-(4-fluorophenyl)-5-(3-phenoxyphenyl)pent-2-ene] |  |  |  |  |  |  |  |  |  |  |  | mortality at 250 ppm (Myzus persicae (aphids); 250 ppm): < 50%; mortality at 250 ppm ([1]; 250 ppm): < 50%; mortality at 250 ppm ([2]; 250 ppm): 50 to 79%; pest or weed control at 250 ppm ([3]; 250 ppm): < 50%; mortality at 250 ppm ([4]; 250 ppm): < 50%; mortality at 250 ppm ([5]; 250 ppm): < 50%; mortality at 125 µg/mL ([6]; rate 250 ppm): 50 to 69%; mortality at 250 ppm [7]: < 50%; mortality at 250 ppm ([8]; 250 ppm): 50 to 79%; mortality at 250 ppm ([9]; 250 ppm): < 50%; mortality at 250 ppm ([10]; 250 ppm): 50 to 79%
CCOc1ccc(C(CCCc2c(F)c(F)c(F)c(F)c2F)C(F)(F)F)cc1 (racemic) [Compound 43, 1,1,1-Trifluoro-2-(4-ethoxyphenyl)-5-(pentafluorophenyl)pentane] | < 50% | 50 to 79% | 80 to 100% | 50 to 79% | < 50% | < 50% | < 50% | < 50% | 80 to 100% | < 50% | 50 to 79% | 
CCOc1ccc(C(=CCCc2cccc(Oc3ccccc3)c2)C(F)(F)F)cc1F [Compound 50, 1,1,1-Trifluoro-2-(3-fluoro-4-ethoxyphenyl)-5-(3-phenoxyphenyl)-pent-2-ene] |  |  |  |  |  |  |  |  |  |  |  | mortality at 450 ppm (Myzus persicae (aphids); 450 ppm): 80 to 100%; mortality at 450 ppm ([1]; 450 ppm): 80 to 100%; mortality at 450 ppm ([2]; 450 ppm): 80 to 100%; pest or weed control at 450 ppm ([3]; 450 ppm): 80 to 100%; mortality at 450 ppm ([4]; 450 ppm): < 50%; mortality at 450 ppm ([5]; 450 ppm): < 50%; mortality at 225 µg/mL ([6]; rate column 450 ppm): < 50%; mortality at 450 ppm [7]: 80 to 100%; mortality at 450 ppm ([8]; 450 ppm): 80 to 100%; mortality at 450 ppm ([9]; 450 ppm): < 50%; mortality at 450 ppm ([10]; 450 ppm): 80 to 100%
CCOc1ccc(C(=CC=Cc2cccc(Oc3ccccc3)c2)C(F)F)cc1 [Compound 65, 1,1-Difluoro-2-(4-ethoxyphenyl)-5-(3-phenoxyphenyl)penta-2,4-diene] | < 50% | < 50% | < 50% | < 50% | < 50% | < 50% | < 50% | < 50% | < 50% | < 50% | < 50% | 
CCOc1ccc(C(CCCc2cccc(Oc3ccccc3)c2)C(F)F)cc1 (racemic) [Compound 66, 1,1-Difluoro-2-(4-ethoxyphenyl)-5-(3-phenoxyphenyl)pentane] | 80 to 100% | 80 to 100% | 80 to 100% | < 50% | < 50% | 80 to 100% | < 50% | 80 to 100% | 80 to 100% | < 50% | 80 to 100% | 
COCc1ccc(C(CCCc2cccc(Oc3ccccc3)c2)C(F)(F)F)cc1 (racemic) [Compound 45, 1,1,1-Trifluoro-2-(4-methoxymethylphenyl)-5-(3-phenoxyphenyl)pentane] | < 50% | 80 to 100% | 80 to 100% | 80 to 100% | < 50% | 80 to 100% | < 50% | 80 to 100% | 80 to 100% | < 50% | < 50% | 
CCOc1ccc(C(=CC=Cc2cccc(Oc3ccccc3)n2)C(F)(F)F)cc1 [Compound 100, 1,1,1-Trifluoro-2-(4-ethoxyphenyl)-5-(6-phenoxypyrid-2-yl)penta-2,4-diene] | < 50% | < 50% | < 50% | 50 to 79% | < 50% | 50 to 79% | < 50% | < 50% | < 50% | < 50% | < 50% | 
CCOc1ccc(C(CCCc2cccc(Oc3ccccc3)c2)C(F)(F)Cl)cc1 (racemic) [Compound 69, 1,1-Difluoro-1-chloro-2-(4-ethoxyphenyl)-5-(3-phenoxyphenyl)pentane] | 80 to 100% | 80 to 100% | 80 to 100% | < 50% | < 50% | 80 to 100% | < 50% | 80 to 100% | 80 to 100% | < 50% | 80 to 100% | 
COc1ccc(C(=CCCc2cccc(Oc3ccccc3)c2)C(F)(F)F)cc1 [Compound 46, 1,1,1-Trifluoro-2-(4-methoxyphenyl)-5-(3-phenoxyphenyl)pent-2-ene] | < 50% | < 50% | < 50% | < 50% | < 50% | < 50% | < 50% | 80 to 100% | < 50% | < 50% | < 50% | 
CCOc1ccc(C(CCCc2cccc(Oc3ccccc3)c2)C(F)(F)F)cc1F (racemic) [Compound 56, 1,1,1-Trifluoro-2-(3-fluoro-4-ethoxyphenyl)-5-(3-phenoxyphenyl)pentane] | 80 to 100% | 80 to 100% | 80 to 100% | 80 to 100% | 80 to 100% | 80 to 100% | < 50% | 80 to 100% | 80 to 100% | 80 to 100% | 80 to 100% | 
